Publication PMC6264460, “Lead Generation and Optimization Based on Protein-Ligand Complementarity” (Molecules, 2010)

Target: T1, JNK3 (Homo sapiens, UniProt P53779)
T1 construct: made in house
Assay: Inhibition of ATP hydrolysis by JNK3 (coupled NADH oxidation assay)
Format: biochemical
Conditions: ATP hydrolysis by JNK3, 100 nM JNK3, pH 7.6, 1% DMSO
Excerpt: To measure the inhibitory activity of the Z1208, we used the following assay system: adenosine triphosphate (ATP), phosphoenolpyruvate (PEP), nicotinamide adenine dinucleotide (NADH), and a solution mixture of pyruvate kinase and L-lactate dehydrogenase (PK-L-LDH) were purchased from Roche Diagnostics. Other reagents were purchased from Sigma-Aldrich. JNK3 was expressed and purified by the method of Xie et al.. After a purification step, JNK3 was activated by GST-fused MKK7 and further purified against a glutathione-fixed column. […] The conversion of NADH was measured by kinetic monitoring with SpectraMax 190 (Molecular Devices).

T1 sequence (P53779 40-402 limits assumed): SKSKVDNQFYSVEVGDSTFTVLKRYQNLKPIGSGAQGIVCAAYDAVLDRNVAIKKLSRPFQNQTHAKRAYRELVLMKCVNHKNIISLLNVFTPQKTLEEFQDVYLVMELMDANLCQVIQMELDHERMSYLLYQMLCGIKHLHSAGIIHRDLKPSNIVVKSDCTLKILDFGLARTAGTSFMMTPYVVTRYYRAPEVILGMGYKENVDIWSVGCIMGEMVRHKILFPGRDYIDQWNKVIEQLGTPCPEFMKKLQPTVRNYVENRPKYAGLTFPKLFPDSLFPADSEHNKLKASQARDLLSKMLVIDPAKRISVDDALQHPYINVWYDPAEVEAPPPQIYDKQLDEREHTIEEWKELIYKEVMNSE

How did the IC50 turn out when `CN1c2c[nH]nc2C(O)=C(C(=O)Nc2ccc(Cl)c(Cl)c2)S1(=O)=O` [Z1208-8] was run?
Its IC50 is 62.9 µM.
